According to article PMC6437697 (Journal of Medicinal Chemistry, 2019):

Tests used:
Experiment in all cases: KINOMEscan
Assay type in all cases: binding
Details in all cases: read-out: % control activity remaining
[1] = molecular target: T1, EGFR(G719S) (Homo sapiens, UniProt P00533, G719S)
T1 construct: purchased Eurofins DiscoverX KINOMEscan

[2] = molecular target: T2, PYK2 (Homo sapiens, UniProt Q14289)
T2 construct: purchased Eurofins DiscoverX KINOMEscan

[3] = molecular target: T3, NEK5 (Homo sapiens, UniProt Q6P3R8)
T3 construct: purchased Eurofins DiscoverX KINOMEscan
T3 sequence (Q6P3R8 1-708): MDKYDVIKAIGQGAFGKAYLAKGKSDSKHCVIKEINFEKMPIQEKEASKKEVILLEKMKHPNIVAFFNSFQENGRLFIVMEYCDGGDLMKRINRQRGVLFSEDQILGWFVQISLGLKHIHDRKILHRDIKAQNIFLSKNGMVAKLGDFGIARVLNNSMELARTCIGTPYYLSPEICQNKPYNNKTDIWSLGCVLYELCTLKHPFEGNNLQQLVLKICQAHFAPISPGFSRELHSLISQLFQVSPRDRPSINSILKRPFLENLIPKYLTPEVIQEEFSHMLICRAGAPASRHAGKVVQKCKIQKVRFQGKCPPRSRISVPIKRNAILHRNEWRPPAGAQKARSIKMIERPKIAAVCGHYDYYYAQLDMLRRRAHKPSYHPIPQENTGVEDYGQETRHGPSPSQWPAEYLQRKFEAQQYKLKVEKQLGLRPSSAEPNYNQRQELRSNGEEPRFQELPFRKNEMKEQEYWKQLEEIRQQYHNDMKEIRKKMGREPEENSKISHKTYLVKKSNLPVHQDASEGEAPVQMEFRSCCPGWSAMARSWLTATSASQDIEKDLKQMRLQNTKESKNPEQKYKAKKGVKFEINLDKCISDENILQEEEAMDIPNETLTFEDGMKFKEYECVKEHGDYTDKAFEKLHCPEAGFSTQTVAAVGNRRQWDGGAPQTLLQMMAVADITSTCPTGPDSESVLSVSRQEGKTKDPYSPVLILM

[4] = molecular target: T4, INSRR (Homo sapiens, UniProt P14616)
T4 construct: purchased Eurofins DiscoverX KINOMEscan
T4 sequence (P14616 27-1297): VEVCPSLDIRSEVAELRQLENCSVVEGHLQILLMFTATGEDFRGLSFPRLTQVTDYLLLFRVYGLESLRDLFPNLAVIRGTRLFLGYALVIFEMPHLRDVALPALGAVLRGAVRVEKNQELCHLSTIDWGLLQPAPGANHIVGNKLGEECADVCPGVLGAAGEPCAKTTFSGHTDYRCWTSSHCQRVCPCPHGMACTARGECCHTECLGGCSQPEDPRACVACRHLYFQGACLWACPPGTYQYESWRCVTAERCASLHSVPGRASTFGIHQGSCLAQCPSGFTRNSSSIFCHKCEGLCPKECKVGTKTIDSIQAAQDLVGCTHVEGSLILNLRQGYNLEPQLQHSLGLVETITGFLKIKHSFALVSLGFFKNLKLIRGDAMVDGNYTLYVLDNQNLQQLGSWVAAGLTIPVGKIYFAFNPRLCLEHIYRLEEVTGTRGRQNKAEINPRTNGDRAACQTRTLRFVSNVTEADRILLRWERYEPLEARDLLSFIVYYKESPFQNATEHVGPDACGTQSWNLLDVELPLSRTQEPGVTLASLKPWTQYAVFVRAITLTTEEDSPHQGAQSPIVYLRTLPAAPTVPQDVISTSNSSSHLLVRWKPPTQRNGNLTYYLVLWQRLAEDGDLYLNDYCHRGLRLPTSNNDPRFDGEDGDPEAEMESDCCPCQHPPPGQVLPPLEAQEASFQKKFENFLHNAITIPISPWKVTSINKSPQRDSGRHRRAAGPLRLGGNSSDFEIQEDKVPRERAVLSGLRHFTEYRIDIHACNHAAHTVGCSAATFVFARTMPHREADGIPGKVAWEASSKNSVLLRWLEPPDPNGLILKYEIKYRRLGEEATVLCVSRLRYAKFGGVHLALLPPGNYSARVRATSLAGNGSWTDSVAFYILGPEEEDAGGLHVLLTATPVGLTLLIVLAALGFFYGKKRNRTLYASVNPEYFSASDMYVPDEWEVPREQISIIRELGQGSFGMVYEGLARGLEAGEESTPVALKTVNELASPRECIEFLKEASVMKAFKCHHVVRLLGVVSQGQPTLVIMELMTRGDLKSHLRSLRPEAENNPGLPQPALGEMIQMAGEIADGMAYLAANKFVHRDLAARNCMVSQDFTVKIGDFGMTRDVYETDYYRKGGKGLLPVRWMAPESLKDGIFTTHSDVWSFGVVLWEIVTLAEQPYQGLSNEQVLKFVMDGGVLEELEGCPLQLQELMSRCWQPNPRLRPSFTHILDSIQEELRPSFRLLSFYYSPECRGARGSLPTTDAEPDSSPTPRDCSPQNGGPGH

[5] = molecular target: T5, ULK1 (Homo sapiens, UniProt O75385)
T5 construct: purchased Eurofins DiscoverX KINOMEscan
T5 sequence (O75385 1-1050): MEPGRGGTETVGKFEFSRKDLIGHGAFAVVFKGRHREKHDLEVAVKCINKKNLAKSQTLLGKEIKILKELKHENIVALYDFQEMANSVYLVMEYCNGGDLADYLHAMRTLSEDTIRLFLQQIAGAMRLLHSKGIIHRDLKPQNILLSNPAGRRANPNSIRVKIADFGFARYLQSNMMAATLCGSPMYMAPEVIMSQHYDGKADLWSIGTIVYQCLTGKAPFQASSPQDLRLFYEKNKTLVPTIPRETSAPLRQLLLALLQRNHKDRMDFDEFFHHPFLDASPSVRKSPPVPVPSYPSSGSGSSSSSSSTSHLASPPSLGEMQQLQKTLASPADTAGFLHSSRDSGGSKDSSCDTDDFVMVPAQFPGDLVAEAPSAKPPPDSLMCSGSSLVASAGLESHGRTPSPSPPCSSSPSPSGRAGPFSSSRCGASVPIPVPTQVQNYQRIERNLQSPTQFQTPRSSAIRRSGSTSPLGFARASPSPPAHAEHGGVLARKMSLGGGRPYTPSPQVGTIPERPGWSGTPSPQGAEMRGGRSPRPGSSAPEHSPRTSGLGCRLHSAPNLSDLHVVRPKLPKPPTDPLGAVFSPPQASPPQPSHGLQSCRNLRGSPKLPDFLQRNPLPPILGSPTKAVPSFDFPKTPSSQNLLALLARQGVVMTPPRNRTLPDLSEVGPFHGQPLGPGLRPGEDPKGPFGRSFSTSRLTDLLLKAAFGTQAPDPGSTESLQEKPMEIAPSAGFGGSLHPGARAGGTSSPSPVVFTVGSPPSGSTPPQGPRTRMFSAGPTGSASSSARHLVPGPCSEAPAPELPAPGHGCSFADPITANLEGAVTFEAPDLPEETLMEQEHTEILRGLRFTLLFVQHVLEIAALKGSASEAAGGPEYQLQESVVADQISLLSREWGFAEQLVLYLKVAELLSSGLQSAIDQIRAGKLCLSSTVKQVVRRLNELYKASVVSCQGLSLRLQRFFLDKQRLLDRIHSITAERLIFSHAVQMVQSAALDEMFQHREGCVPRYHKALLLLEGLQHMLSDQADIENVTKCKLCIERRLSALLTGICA

[6] = molecular target: T6, ABL1(H396P)-nonphosphorylated (Homo sapiens, UniProt P00519, H396P)
T6 construct: purchased Eurofins DiscoverX KINOMEscan

[7] = molecular target: T7, CSNK1D (Homo sapiens, UniProt P48730)
T7 construct: purchased Eurofins DiscoverX KINOMEscan
T7 sequence (P48730 whole entry): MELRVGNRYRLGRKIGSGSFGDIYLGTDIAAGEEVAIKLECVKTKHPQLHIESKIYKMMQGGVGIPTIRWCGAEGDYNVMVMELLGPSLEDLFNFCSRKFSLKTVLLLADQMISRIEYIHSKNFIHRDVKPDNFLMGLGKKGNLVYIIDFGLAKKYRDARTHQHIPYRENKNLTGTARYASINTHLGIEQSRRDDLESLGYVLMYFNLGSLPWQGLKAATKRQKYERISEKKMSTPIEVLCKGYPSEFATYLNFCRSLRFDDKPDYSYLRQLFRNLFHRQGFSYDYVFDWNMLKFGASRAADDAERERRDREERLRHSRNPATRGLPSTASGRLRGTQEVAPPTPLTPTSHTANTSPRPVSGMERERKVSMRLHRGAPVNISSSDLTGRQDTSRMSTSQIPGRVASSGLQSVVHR

T2 sequence (Q14289 whole entry): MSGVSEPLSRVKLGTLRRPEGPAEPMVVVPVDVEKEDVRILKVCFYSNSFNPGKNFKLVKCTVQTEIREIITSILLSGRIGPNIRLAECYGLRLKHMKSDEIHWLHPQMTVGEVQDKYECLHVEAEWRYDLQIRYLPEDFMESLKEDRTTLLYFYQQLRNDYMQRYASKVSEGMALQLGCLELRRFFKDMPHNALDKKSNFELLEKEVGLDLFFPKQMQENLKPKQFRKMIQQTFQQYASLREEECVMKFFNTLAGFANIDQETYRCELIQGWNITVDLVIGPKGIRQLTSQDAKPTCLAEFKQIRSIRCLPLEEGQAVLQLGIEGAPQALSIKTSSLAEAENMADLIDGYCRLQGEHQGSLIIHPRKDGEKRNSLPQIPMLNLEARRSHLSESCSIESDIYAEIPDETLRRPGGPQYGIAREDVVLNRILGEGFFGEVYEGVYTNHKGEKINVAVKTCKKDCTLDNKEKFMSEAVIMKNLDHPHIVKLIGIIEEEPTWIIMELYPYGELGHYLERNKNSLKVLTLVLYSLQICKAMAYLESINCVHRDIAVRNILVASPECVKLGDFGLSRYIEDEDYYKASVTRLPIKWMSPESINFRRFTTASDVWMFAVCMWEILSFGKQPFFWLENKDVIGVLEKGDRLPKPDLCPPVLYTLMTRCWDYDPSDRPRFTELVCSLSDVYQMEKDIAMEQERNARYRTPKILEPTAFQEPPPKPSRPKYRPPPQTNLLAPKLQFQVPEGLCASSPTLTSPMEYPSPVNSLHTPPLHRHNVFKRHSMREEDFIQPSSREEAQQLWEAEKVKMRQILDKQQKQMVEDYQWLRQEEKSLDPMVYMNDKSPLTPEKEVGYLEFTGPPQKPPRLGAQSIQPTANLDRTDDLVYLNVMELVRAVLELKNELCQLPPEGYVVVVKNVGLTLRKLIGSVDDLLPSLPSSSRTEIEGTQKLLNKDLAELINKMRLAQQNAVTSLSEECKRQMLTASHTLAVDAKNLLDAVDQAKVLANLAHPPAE
T1 sequence (P00533 25-1210 G719S limits assumed): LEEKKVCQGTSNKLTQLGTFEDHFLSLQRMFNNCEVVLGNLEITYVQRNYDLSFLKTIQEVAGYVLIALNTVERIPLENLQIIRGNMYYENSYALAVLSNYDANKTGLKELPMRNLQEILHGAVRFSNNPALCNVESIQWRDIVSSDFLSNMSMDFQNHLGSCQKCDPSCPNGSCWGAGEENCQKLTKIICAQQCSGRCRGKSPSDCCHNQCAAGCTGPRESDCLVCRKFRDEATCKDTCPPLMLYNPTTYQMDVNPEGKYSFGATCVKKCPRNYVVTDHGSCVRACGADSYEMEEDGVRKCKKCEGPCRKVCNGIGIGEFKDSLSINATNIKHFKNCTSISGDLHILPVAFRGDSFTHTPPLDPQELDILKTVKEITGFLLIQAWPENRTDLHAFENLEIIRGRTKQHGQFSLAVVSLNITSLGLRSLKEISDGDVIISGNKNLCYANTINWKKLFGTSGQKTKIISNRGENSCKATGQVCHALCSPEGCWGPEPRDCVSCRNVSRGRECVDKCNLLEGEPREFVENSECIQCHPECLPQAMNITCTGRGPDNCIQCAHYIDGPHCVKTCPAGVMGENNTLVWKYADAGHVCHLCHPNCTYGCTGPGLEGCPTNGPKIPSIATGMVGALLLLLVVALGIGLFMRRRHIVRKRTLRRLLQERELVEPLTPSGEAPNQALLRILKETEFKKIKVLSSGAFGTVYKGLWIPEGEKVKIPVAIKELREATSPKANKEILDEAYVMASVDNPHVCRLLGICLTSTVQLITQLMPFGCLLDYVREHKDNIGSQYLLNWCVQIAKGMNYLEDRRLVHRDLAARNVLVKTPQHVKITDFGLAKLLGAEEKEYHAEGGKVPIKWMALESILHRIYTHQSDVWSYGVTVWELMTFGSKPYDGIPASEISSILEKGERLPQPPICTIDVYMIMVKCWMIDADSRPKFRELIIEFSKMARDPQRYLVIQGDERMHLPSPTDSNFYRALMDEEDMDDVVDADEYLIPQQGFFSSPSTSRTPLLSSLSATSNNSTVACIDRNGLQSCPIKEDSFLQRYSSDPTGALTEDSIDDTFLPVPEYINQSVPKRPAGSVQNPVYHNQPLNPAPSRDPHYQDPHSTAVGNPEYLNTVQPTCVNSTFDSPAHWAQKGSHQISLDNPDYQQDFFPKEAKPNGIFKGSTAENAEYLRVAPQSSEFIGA

Row | Compound | remaining binding at 1 µM [1] [%] | remaining binding at 1 µM [2] [%] | remaining binding at 1 µM [3] [%] | remaining binding at 1 µM [4] [%] | remaining binding at 1 µM [5] [%] | remaining binding at 1 µM [6] [%] | remaining binding at 1 µM [7] [%]
1 | Clc1cc(NCC2CC2)c2ncc(-c3ccc4[nH]ncc4c3)n2n1 [compound 2, 6-Chloro-N-(cyclopropylmethyl)-3-(1H-indazol-5-yl)imidazo[1,2-b]pyridazin-8-amine] | 85 | 84 | 93 | 96 | 78 | 74 | 64
2 | O=C(CN1CCOCC1)N[C@H]1CC[C@H](Nc2cc(Cl)nn3c(-c4ccc5[nH]ncc5c4)cnc23)CC1 [compound 26] | 97 | 86 | 86 | 85 | 97 | 16 | 61
3 | CN1CCC(CNc2cc(Cl)nn3c(-c4cc5nc(Nc6ccccc6)[nH]c5cc4F)cnc23)CC1 [compound 31, 6-Chloro-3-(6-fluoro-2-(phenylamino)-1H-benzo[d]imidazol-5-yl)-N-((1-methylpiperidin-4-yl)methyl)imidazo[1,2-b]pyridazin-8-amine] | 71 | 99 | 96 | 100 | 79 | 42 | 100
